Here are results for 53 compounds from patent US20250188060A1, “ALPHA1A-ADRENERGIC RECEPTOR AGONISTS AND METHODS OF USE” (CuraSen Therapeutics, Inc., priority 2022, published 2025).

This assay deals with T1, α1A-ARs (Homo sapiens, UniProt P35348).
T1 sequence (P35348 1-466): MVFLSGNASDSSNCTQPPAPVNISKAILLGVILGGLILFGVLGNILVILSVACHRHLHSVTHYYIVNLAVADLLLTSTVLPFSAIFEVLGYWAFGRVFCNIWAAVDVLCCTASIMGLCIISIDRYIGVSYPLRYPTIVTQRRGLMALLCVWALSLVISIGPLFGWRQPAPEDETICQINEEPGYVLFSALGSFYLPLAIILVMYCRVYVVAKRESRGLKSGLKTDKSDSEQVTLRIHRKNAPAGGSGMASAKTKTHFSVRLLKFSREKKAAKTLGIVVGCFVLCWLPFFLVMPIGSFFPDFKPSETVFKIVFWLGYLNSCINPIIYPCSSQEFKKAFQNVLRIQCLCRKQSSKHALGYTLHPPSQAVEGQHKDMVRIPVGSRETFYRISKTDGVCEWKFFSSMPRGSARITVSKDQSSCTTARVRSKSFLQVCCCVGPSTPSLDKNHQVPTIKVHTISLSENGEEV
In words: Calcium flux assay (Calcium 6 dye) in cells expressing an α1-AR. Type of assay: cell-based. To be noted: for Emax: read-out: Average Emax (% epi); for EC50: read-out: Average pEC50 (converted). The text has this:
Calcium flux experimental design: alpha-1 adrenergic receptors (α1-ARs) couple to Gq proteins, which results in downstream activation of phospholipase C and release of calcium from intracellular stores. Intracellular calcium increase upon α1-AR activation can be detected by Calcium 6 dye.
Cell preparation: cells expressing an α1-AR were washed in warmed phosphate-buffered saline to remove medium and harvested using versene (Caisson Labs, catalog #EDL01).
Media was removed from cells by tapping plates upside-down on absorbent wipes, followed by 15 second upside-down 50×g centrifugation, again on absorbent wipes. 12 μL cell dye solution was added to cells using a reagent dispenser (Integra viaFILL) and cells were incubated for 90 minutes at 37° C., 5% CO2.
Compound preparation: candidate alpha-adrenergic compounds, dissolved to 10 mM in DMSO, were diluted in assay buffer (HBSS/HEPES containing 2 mM CaCl2) and 2 mM probenecid sodium salt). […] On all assay plates, vehicle (DMSO) and positive control (10 μM epinephrine) conditions were included on the plate, as well as a dose-response curve of epinephrine. […] 384 well compound plates were centrifuged briefly at 250×g, sealed (Axygen PCR-SP) and incubated at 37° C. until the 90 minute cell dye incubation was complete.
Calcium 6 stained cells and 384 well compound plates were loaded onto the Flexstation and incubated on the machine for 5 minutes before initiating the assay.
For each assay well, baseline Calcium 6 fluorescence was detected for 18 seconds prior to 12 μL compound addition at 12 μL per second. Changes in Calcium 6 fluorescence were detected for a further 22 seconds, for a total read time of 40 seconds. All detection was performed with medium gain sensitivity, bottom read, with 6 flashes per read.
Data analysis: for calcium flux, analysis of maximum change from baseline over the 40-second read time was determined using Softmax Pro and data was exported as raw text files. Potency estimates (EC50) were derived from dose response curves (maximum change from baseline versus the log concentration of test compound) fit by four-parameter nonlinear regression using Graphpad Prism. Efficacy was determined by comparing the magnitude of the test compound signal window (fitted curve max−min) with the signal window of the full agonist control, epinephrine. […] All experiments were repeated a minimum of three times, with the average (mean) potency and maximum effect relative to the within-plate full agonist dose-response comparator reported.
Background: Calcium flux is commonly read through the fluorescence of an indicator in the cells.

Where [1] appears, read: α1A-AR calcium flux, mean of at least three experiments.
Setting [2] is: α1A-AR calcium flux, relative to full agonist epinephrine, mean of at least three experiments.

Molecules are shown by their SMILES. Like-named read-outs stand apart in the source and are kept apart here. Some results are limits rather than exact numbers.

Broadly, the Emax is the greatest response seen or fitted, relative to the assay's reference. As for `Fc1ccc2c(Cl)nn(CC3=NCCN3)c2c1Cl` [Compound 24], the Emax was greater than 61%. For the same compound, the EC50 under setting [1] was 10 to 977 nM.

For `CC(F)(F)c1cccc2c(N3CCCC3)nn(CC3=NCCN3)c12` [Compound 74], the EC50 under setting [1] is greater than 1000 nM. The Emax under setting [2] lay within 21 to 60%.

In the case of `FC(F)(F)c1cccc2c(N3CCCC3)nn(CC3=NCCN3)c12` [Compound 71], the EC50 under setting [1] is greater than 1000 nM. Besides, the maximum response (Emax) under setting [2] was less than 20%.

With `N#Cc1cn(CC2=NCCN2)c2c(Cl)cccc12` [Compound 18], the Emax is greater than 61%. The EC50 under setting [1] was 10 to 977 nM.

As to `COc1ccc(C(C)C)c2ccn(CC3=NCCN3)c12` [Compound 7], the Emax was greater than 61%. Also, under setting [1], the EC50 is 10 to 977 nM.

With `Clc1nn(CC2=NCCN2)c2c(-c3ccon3)cccc12` [Compound 59], under setting [1], the EC50 is greater than 1000 nM. Moreover, the maximal response (Emax) under setting [2] is less than 20%.

On to `Cc1cccc2c(C(F)(F)F)nn(CC3=NCCN3)c12` [Compound 61], for which the maximal effect (Emax) was less than 20%. In addition, the EC50 under setting [1] is greater than 1000 nM.

Regarding `Fc1ccc2c(C3CC3)cn(CC3=NCCN3)c2c1Cl` [Compound 12], the Emax fell in the range of 21 to 60%. In addition, the EC50 under setting [1] is less than 9.77 nM.

As for `CC(F)(F)c1cc(F)cc2c(Cl)nn(CC3=NCCN3)c12` [Compound 75], the EC50 under setting [1] was 10 to 977 nM. Besides, under setting [2], the Emax lay within 21 to 60%.

Take `Clc1cccc2cnn(CC3=NCCN3)c12` [Compound 15]: the Emax was less than 20%. The EC50 under setting [1] was greater than 1000 nM.

For `Cc1cn(CC2=NCCN2)c2c(Cl)cccc12` [Compound 17], the maximal effect (Emax) is greater than 61%. In addition, the EC50 under setting [1] is less than 9.77 nM.

As for `Cc1cc(F)cc2c(N3CCCC3)nn(CC3=NCCN3)c12` [Compound 77], under setting [1], the EC50 is 10 to 977 nM. Besides, the maximal effect (Emax) under setting [2] lay in the range of 21 to 60%.

On to `Cc1cccc2c(C(C)(F)F)nn(CC3=NCCN3)c12` [Compound 62], for which the maximal response (Emax) is greater than 61%. Further, under setting [1], the EC50 is 10 to 977 nM.

Take `Cc1cccc2c(N3CCCCC3)nn(CC3=NCCN3)c12` [Compound 68]: the EC50 under setting [1] is greater than 1000 nM. Besides, under setting [2], the Emax is less than 20%.

On to `FC(F)(F)Cc1cccc2c(Cl)nn(CC3=NCCN3)c12` [Compound 53], for which the EC50 under setting [1] is greater than 1000 nM. Further, under setting [2], the Emax lay in the range of 21 to 60%.

For `CCc1cccc2c(Cl)nn(CC3=NCCN3)c12` [Compound 40], the maximal effect (Emax) is greater than 61%. Moreover, the EC50 under setting [1] was 10 to 977 nM.

On to `Cc1cc2cccc(Cl)c2n1CC1=NCCN1` [Compound 19], for which the Emax is less than 20%. Moreover, the EC50 under setting [1] is greater than 1000 nM.

For `Clc1cccc2ccn(CC3=NCCN3)c12` [Compound 13], the Emax is 21 to 60%. Further, the EC50 under setting [1] is 10 to 977 nM.

In the case of `FC(F)(F)c1cc(Cl)cc2c(Cl)nn(CC3=NCCN3)c12` [Compound 64], the EC50 under setting [1] is greater than 1000 nM. For the same compound, the Emax under setting [2] was less than 20%.

`Fc1cc(C(F)(F)F)c2c(c1)c(Cl)nn2CC1=NCCN1` [Compound 65]: the EC50 under setting [1] is 10 to 977 nM. In addition, the Emax under setting [2] is greater than 61%.

On to `Fc1cc(F)c2c(c1)c(C1CC1)cn2CC1=NCCN1` [Compound 11], for which the Emax was greater than 61%. In addition, the EC50 under setting [1] was less than 9.77 nM.

For `Clc1nn(CC2=NCCN2)c2c(N3CCCC3)cccc12` [Compound 67], under setting [1], the EC50 was greater than 1000 nM. Further, the Emax under setting [2] lay within 21 to 60%.

On to `Fc1cc(Cl)c2c(c1)c(C1CC1)cn2CC1=NCCN1` [Compound 8], for which the Emax is less than 20%. Moreover, the EC50 under setting [1] is 10 to 977 nM.

On to `Clc1nn(CC2=NCCN2)c2c(-n3cccc3)cccc12` [Compound 33], for which the EC50 under setting [1] is 10 to 977 nM. In addition, under setting [2], the Emax is greater than 61%.

On to `Cc1ccnc2c(Cl)nn(CC3=NCCN3)c12` [Compound 30], for which the Emax was greater than 61%. Besides, the EC50 under setting [1] was 10 to 977 nM.

For `Clc1cccc2c(-n3cccc3)nn(CC3=NCCN3)c12` [Compound 58], the EC50 under setting [1] was 10 to 977 nM. Besides, under setting [2], the maximal effect (Emax) was greater than 61%.

As for `Clc1nn(CC2=NCCN2)c2c(-c3ccccn3)cccc12` [Compound 48], the EC50 under setting [1] was 10 to 977 nM. Besides, under setting [2], the Emax lay in the range of 21 to 60%.

Regarding `CC(F)(F)c1cccc2c(Cl)nn(CC3=NCCN3)c12` [Compound 39], the Emax fell in the range of 21 to 60%. Under setting [1], the EC50 is 10 to 977 nM.

As for `Clc1cccc2c1c(Cl)nn2CC1=NCCN1` [Compound 45], the Emax is less than 20%. Further, under setting [1], the EC50 was greater than 1000 nM.

`Clc1nn(CC2=NCCN2)c2c(-c3cnccn3)cccc12` [Compound 52]: under setting [1], the EC50 is greater than 1000 nM. For the same compound, the maximal response (Emax) under setting [2] is less than 20%.

`CC(C)(C)c1nn(CC2=NCCN2)c2c(Cl)cccc12` [Compound 16]: the Emax was less than 20%. Moreover, the EC50 under setting [1] was greater than 1000 nM.

With `Clc1nn(CC2=NCCN2)c2c(-c3ccccc3)cccc12` [Compound 34], the EC50 under setting [1] is 10 to 977 nM. Also, under setting [2], the Emax lay in the range of 21 to 60%.

As for `Cc1cc(Cl)cc2c(N3CCCC3)nn(CC3=NCCN3)c12` [Compound 66], the EC50 under setting [1] was 10 to 977 nM. In addition, under setting [2], the Emax lay within 21 to 60%.

For `Clc1cccc2c(-c3ccccc3)nn(CC3=NCCN3)c12` [Compound 42], under setting [1], the EC50 was greater than 1000 nM. Further, the Emax under setting [2] lay within 21 to 60%.

As for `Cc1cn(CC2=NCCN2)c2c(Cl)ccc(C(C)C)c12` [Compound 5], the Emax was greater than 61%. Besides, under setting [1], the EC50 was 10 to 977 nM.

Consider `CC(C)Oc1cccc2c(Cl)nn(CC3=NCCN3)c12` [Compound 38], for which the Emax fell in the range of 21 to 60%. For the same compound, the EC50 under setting [1] is greater than 1000 nM.

Consider `Cc1cc(F)cc2c(Cl)nn(CC3=NCCN3)c12` [Compound 50], for which the Emax is less than 20%. Under setting [1], the EC50 was greater than 1000 nM.

Regarding `Clc1cccc2c(-c3ncco3)nn(CC3=NCCN3)c12` [Compound 55], the EC50 under setting [1] was greater than 1000 nM. Also, under setting [2], the Emax was less than 20%.

With `Clc1cccc2c(-c3cccnc3)nn(CC3=NCCN3)c12` [Compound 14], the EC50 under setting [1] was greater than 1000 nM. For the same compound, under setting [2], the Emax was less than 20%.

`FC(F)(F)c1cccc2c(Cl)nn(CC3=NCCN3)c12` [Compound 27]: the Emax is greater than 61%. In addition, the EC50 under setting [1] is 10 to 977 nM.

Turning to `Cc1cc(Cl)cc2c(Cl)nn(CC3=NCCN3)c12` [Compound 46], the Emax is greater than 61%. The EC50 under setting [1] was 10 to 977 nM.

For the compound `Clc1nn(CC2=NCCN2)c2c(-n3cccn3)cccc12` [Compound 36], under setting [1], the EC50 was 10 to 977 nM. For the same compound, the maximal response (Emax) under setting [2] was 21 to 60%.

With `Cc1cc(C(F)(F)F)cc2c(Cl)nn(CC3=NCCN3)c12` [Compound 73], the EC50 under setting [1] was 10 to 977 nM. Under setting [2], the Emax was greater than 61%.

In the case of `CC(C)c1ccc(Cl)c2c1c(S(C)(=O)=O)cn2CC1=NCCN1` [Compound 9], the EC50 under setting [1] is greater than 1000 nM. For the same compound, the Emax under setting [2] was less than 20%.

As for `Clc1cccc2c(N3CCCC3)nn(CC3=NCCN3)c12` [Compound 56], the EC50 under setting [1] is greater than 1000 nM. Besides, the Emax under setting [2] was less than 20%.

In the case of `Clc1cccc2c(-n3cccn3)nn(CC3=NCCN3)c12` [Compound 60], the EC50 under setting [1] is greater than 1000 nM. Moreover, under setting [2], the maximal response (Emax) was greater than 61%.

Regarding `Clc1cccc2c(C3=CCOCC3)nn(CC3=NCCN3)c12` [Compound 54], the EC50 under setting [1] is greater than 1000 nM. Also, under setting [2], the Emax lay within 21 to 60%.

As to `Clc1ccc2c(Cl)nn(CC3=NCCN3)c2c1` [Compound 32], the Emax is greater than 61%. Under setting [1], the EC50 is 10 to 977 nM.

In the case of `CC(F)(F)c1cc(Cl)cc2c(Cl)nn(CC3=NCCN3)c12` [Compound 72], the EC50 under setting [1] was 10 to 977 nM. For the same compound, under setting [2], the maximum response (Emax) is greater than 61%.

For the compound `Clc1cn(-c2cn[nH]c2)c2cc(CC3=NCCN3)ccc12` [Compound 4], under setting [1], the EC50 is greater than 1000 nM. Further, the maximal effect (Emax) under setting [2] is less than 20%.

Take `Clc1ccc2c(c1)c(Cl)nn2CC1=NCCN1` [Compound 31]: the Emax is 21 to 60%. Also, the EC50 under setting [1] was greater than 1000 nM.

`FC(F)c1cccc2c(Cl)nn(CC3=NCCN3)c12` [Compound 43]: the Emax is less than 20%. Also, the EC50 under setting [1] is greater than 1000 nM.

Regarding `Cc1cc2c(C(C)C)ccc(Cl)c2n1CC1=NCCN1` [Compound 10], the Emax was greater than 61%. The EC50 under setting [1] is 10 to 977 nM.
